From PubChem BioAssay (NCI)
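All cell lines were grown in 96-well plates and treated with compound for 48 hours. The concentration for full growth arrest is given as TGI.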

Experiments:
Assay in all cases: NCI tumour cell line growth inhibition, 48 h
NCI-H23 lung = tested on: NCI-H23 lung
UACC-257 melanoma = tested on: UACC-257 melanoma
NCI-H226 lung = tested on: NCI-H226 lung
HCC-2998 colon = tested on: HCC-2998 colon
OVCAR-4 ovarian = tested on: OVCAR-4 ovarian
DU-145 prostate = tested on: DU-145 prostate
U251 CNS = tested on: U251 CNS
SK-MEL-28 melanoma = tested on: SK-MEL-28 melanoma
SK-OV-3 ovarian = tested on: SK-OV-3 ovarian
BT-549 breast = tested on: BT-549 breast
A498 renal = tested on: A498 renal
CCRF-CEM leukemia = tested on: CCRF-CEM leukemia
SR leukemia = tested on: SR leukemia
786-0 renal = tested on: 786-0 renal
HOP-62 NSCLC = tested on: HOP-62 NSCLC
SN12C renal = tested on: SN12C renal
MCF7 breast = tested on: MCF7 breast
MDA-MB-435 = tested on: MDA-MB-435
MDA-MB-231 breast = tested on: MDA-MB-231 breast
SK-MEL-5 melanoma = tested on: SK-MEL-5 melanoma

Compound	TGI (NCI-H23 lung)	TGI (UACC-257 melanoma)	TGI (NCI-H226 lung)	TGI (HCC-2998 colon)	TGI (OVCAR-4 ovarian)	TGI (DU-145 prostate)	TGI (U251 CNS)	TGI (SK-MEL-28 melanoma)	TGI (SK-OV-3 ovarian)	TGI (BT-549 breast)	TGI (A498 renal)	TGI (CCRF-CEM leukemia)	TGI (SR leukemia)	TGI (786-0 renal)	TGI (HOP-62 NSCLC)	TGI (SN12C renal)	TGI (MCF7 breast)	TGI (MDA-MB-435)	TGI (MDA-MB-231 breast)	TGI (SK-MEL-5 melanoma)
Cc1[nH]n(C(=N)N)c(=O)c1CCO	> 100 µM	> 100 µM	> 100 µM	> 100 µM	> 100 µM	> 100 µM	> 100 µM	> 100 µM	> 100 µM	> 100 µM	> 100 µM	> 100 µM	> 100 µM	3.08 µM	> 100 µM	> 100 µM	> 100 µM	> 100 µM	> 100 µM	> 100 µM
CN1C(=O)C(C(N)=O)C2CC1(C)Oc1ccccc12 (stereo not given)	> 100 µM	> 100 µM	> 100 µM	> 100 µM	> 100 µM	> 100 µM	> 100 µM	> 100 µM	> 100 µM	> 100 µM	> 100 µM	> 100 µM	> 100 µM	> 100 µM	> 100 µM	> 100 µM	> 100 µM	> 100 µM	> 100 µM	> 100 µM
CN(C)CC1CCC/C(=C\c2ccc(OC(=O)/C=C/c3ccccc3)cc2)C1=O (stereo not given)	4.04 µM	21.2 µM	9.54 µM	> 28.1 µM	9.44 µM	7.11 µM	3.84 µM	7.49 µM	> 50.9 µM	4.47 µM	23.2 µM	0.808 µM	> 100 µM	2.06 µM	10.6 µM	4.43 µM	1.93 µM	7.37 µM	8.2 µM	12.9 µM
CC(=O)Oc1c2c(c(CC=C(C)C)c3c1C(=O)C1=C[C@@H]4CC5C(C)(C)OC(C/C=C(/C)C(=O)O)(C4=O)[C@@]15O3)OC(C)(CCC=C(C)C)C=C2 (stereo not given in full)	1.01 µM	1.36 µM	0.834 µM	1.62 µM	0.567 µM	0.838 µM	0.339 µM	0.378 µM	1.91 µM	0.461 µM	1.82 µM	4.75 µM	53.9 µM	0.364 µM	1.88 µM	0.53 µM	1.4 µM	0.348 µM	0.779 µM	0.737 µM
CCOC(=O)NC(C(=O)OCC)(N1CCN(c2cc3c(cc2F)c(=O)c(C(=O)O)cn3CC)CC1)C(F)(F)F (stereo not given)	> 100 µM	> 100 µM	> 100 µM	> 100 µM	> 100 µM	> 100 µM	> 100 µM	0.533 µM	> 100 µM	> 100 µM	> 100 µM	> 100 µM	> 100 µM	> 100 µM	> 100 µM	> 100 µM	> 100 µM	> 100 µM	> 100 µM	> 100 µM
